{"source": "patent US10188633B2", "about": "“Identification of small molecules that facilitate therapeutic exon skipping” (The Regents of the University of California, priority 2011, dated 2019)", "key": {"[1]": {"tested_on": "human DMD exon 50 GFP based reporter", "experiment": "BioMol high throughput screen in Ex50-GFP reporter C2C12 myoblasts, with or without AON6", "format": "cell-based, mouse"}, "[2]": {"tested_on": "mdx mice", "experiment": "Taut wire test (wire hang) in mdx mice, weekly AO with daily dantrolene", "format": "in vivo, mouse", "conditions": "10 mg/kg/week AO with dantrolene 10 mg/kg/day versus AO alone, Day 18, p=0.022", "experimental": "Weekly systemic doses of saline, 10 mg/kg of morpholino M23D (+07-18) was administered intravascularly on Day 1, 8, and 15. Dantrolene or carrier (20% DMSO in saline) was administered intraperitoneally at a dose of 10 mg/kg/day in two divided doses daily. On Day 18 functional improvement was blindly assessed by using the taut wire test. Latency to fall (in seconds) was recorded for five consecutive trials, with a one minute break occurring in between each trial. Plotted is first the average across five trials, and then the normalized average (seconds/grams) across experimental groups. Error bars represent the s.e.m."}, "[3]": {"conditions": "long term administration; cited from earlier work"}}}
{"smiles": "O=C1CN(/N=C/c2ccc(-c3ccc([N+](=O)[O-])cc3)o2)C(=O)N1", "note": "[DANTROLENE]", "values": [{"measurement": "Average Fluorescence (n = 3)", "setting": "[1]", "value": 18.20}, {"measurement": "Fluorescence Plate 1", "setting": "[1]", "value": 16.32}, {"measurement": "Fluorescence Plate 2", "setting": "[1]", "value": 11.76}, {"measurement": "Fluorescence Plate 3", "setting": "[1]", "value": 26.51}, {"measurement": "activity in the −AO screen", "setting": "[1]", "value": "indistinguishable from the DMSO controls"}, {"measurement": "exon skipping activity in the screen +AO", "setting": "[1]", "value": "enhanced exon skipping activity"}, {"measurement": "taut wire test, latency to fall (muscle strength)", "setting": "[2]; listed as Dantrolene", "value": "significantly increased ability of mdx mice to hang on wire"}, {"measurement": "taut wire test, latency to fall (muscle strength)", "setting": "[2]; listed as dantrolene", "value": "functional benefit"}, {"measurement": "dose shown to be safe in humans", "setting": "[3]", "value": "up to 8 mg/kg/day"}]}
